Results taken from PMC10487708, “Chlorin E6-Curcumin-Mediated Photodynamic Therapy Promotes an Anti-Photoaging Effect in UVB-Irradiated Fibroblasts” (International Journal of Molecular Sciences, 2023).
Where two headings read alike, the source gives them in different places.

Assays:
[1] = test system: Hs68 cells; assay: MTT cell viability of Hs68 cells with or without LED light; assay type: cell-based, human; details: for IC50: Homo sapiens, light or radiation study, Hs68 cells; for cytotoxicity for Hs68 cells: dark, up to 1000 nM
Protocol: Data were represented as mean ± SD from at least three independent experiments and analyzed by one-way ANOVA with Tukey’s post hoc test, * p < 0.01, compared with vehicle-treated control.
(§1) Hs68 and BALB/c 3T3 cell viability was measured using a 3-[4,5-dimethylthylthiazol-2-yl]-2,5 diphenyl tetrazolium bromide (MTT) assay. The cells were cultured in 24-well plates at a density of 3 × 10^4 cells per well or BALB/c 3T3 cells at a density of 1 × 10^4 cells per well. […] The Hs68 cells were then exposed to LED light (660 nm; 89 W/m^2; 20 J/cm^2) for 37 min 27 s and incubated for 3 h. […] The cells were washed and treated with MTT, after which the plates were incubated at 37 °C in the dark for 2 h. After the formation of formazan, 100 µL of DMSO was added, and the absorbance was measured at 570 nm using a microtiter plate reader (Thermo-scientific, Skanlt software 5.0, Waltham, MA, USA)

[2] = MTT cytotoxicity of Ce6-curcumin derivative PDT in BALB/c 3T3 cells; assay type: cell-based, mouse; details: mouse, BALB/c 3T3 cells; 3 h treatment, 660 nm 20 J/cm^2, MTT after 24 h, tested 200 to 6400 nM; read-out: IC50 cytotoxicity against BALB/c 3T3 cells
Protocol: MTT assay was used to evaluate viability after 24 h. IC50 values were calculated using GraphPad Prism 5 software.
as §1

[3] = test system: MMP-2; assay: Gelatin zymography of MMP-2 in UVB-exposed Hs68 cells; assay type: cell-based, human; details: UVB 200 mJ/cm^2, LED 20 J/cm^2, Hs68
Text: Since MMP-2 is a […] that plays an important role in photoaging, we examined the effect of Ce6-curcumin derivatives and LED treatment on the enzyme activities of UV-induced MMP-2 by gelatin zymography. On gelatin zymography, UVB irradiation led to the activation of MMP-2 in Hs68 cells, and this increase was inhibited by Ce6-curcumin derivatives along with LED treatments. On increasing the dose of the Ce6-curcumin derivatives, the MMP-2 was decreased (Figure 7A–C).
Data are expressed as mean ± SD from at least three independent experiments and were analyzed by one-way ANOVA with Tukey’s post hoc test, * p < 0.01 compared with control. ^# p < 0.05 compared with the UVB and LED-treated groups.
MMP-2 activity in cell culture medium was evaluated by gelatin zymography assay as described. After UVB (200 mJ/cm^2) irradiation, Hs68 cells were cultured for 24 h. Ce6-curcumin derivatives were diluted into a medium containing 1% FBS and cultured for 30 min. After 30 min, the LED was irradiated with 20 J/cm^2, cultured for 3 h, washed with 1× PBS, and 300 μL of FBS-free medium was added and cultured for 44 h. […] The activity of MMPs was measured by quantifying the transparent band by proteolytic activity after staining with Coomassie Brilliant Blue staining solution and further distaining with water, methanol, and acetic acid (50:40:10).

[4] = test system: UVB-irradiated BALB/c 3T3 cells; assay: MTT cell viability of UVB-irradiated BALB/c 3T3 cells; assay type: cell-based, mouse; details: UVB 200 mJ/cm^2, 0.2–8 μM, 24 h
Protocol: To investigate the proper dose of UVB irradiation, BALB/c 3T3 cells were exposed to different doses of UVB (50, 100, 200, 800, 1600 mJ/cm^2) for 24 h. […] Therefore, the dose of 200 mJ/cm^2 was used in the subsequent in vitro studies to evaluate the protective effect of Ce6-PDT. The effect of Ce6-curcumin derivatives on BALB/c 3T3 cell viability was evaluated with the MTT assay.
Figure 6 The effect of Ce6-curcumin derivatives on UVB-irradiated BALB/c 3T3 cells. (A) Cell viability of BALB/c 3T3 cells irradiated with different doses of UVB (50, 100, 200, 800, 1600 mJ/cm^2) for 24 h. […] Data were represented as mean ± SD from at least three independent experiments and analyzed by one-way ANOVA with Tukey’s post hoc test, * p < 0.01, compared with UVB-treated groups.
BALB/c 3T3 cells were seeded at a density of 1 × 10^4 cells/well in 96-well plates for 24 h. The culture medium was replaced with phosphate-buffered saline (PBS), and the cells were pretreated with UVB (200 mJ/cm^2) before being incubated for 24 h incubation in an FBS-free medium containing different concentrations of Ce6-curcumin derivatives. Cell viability was measured by MTT assay.

[5] = LED 660 nm 20 J/cm^2, MTT, read-out: Phototoxicity (IC50)
[6] = without LED irradiation, MTT, read-out: Dark Toxicity (IC50)

For C=Cc1c(C)c2cc3nc(c(CC(=O)OC)c4[nH]c(cc5nc(cc1[nH]2)C(C)=C5CC)c(C)c4C(=O)NCCCOCCOCCOCCCNC(=O)CCCC(=O)Oc1ccc(/C=C/C(=O)CC(=O)/C=C/c2ccc(O)c(OC)c2)cc1OC)C(CCC(=O)OC)C3C (stereo not shown) [Ce6-diPEG-curcumin], the IC50 [1, 5] was 0.693 µM, the IC50 [1, 6] was ≥ 1 µM and the “cytotoxicity for Hs68 cells” value [1] was “almost no cytotoxicity”. For the same compound, the IC50 [2] was 0.83 µM, the “UVB-induced MMP-2 expression (gelatin zymography)” value ([3]; 200 nM) was “highest attenuation of MMP-2 expression” and the “concentration from which cytotoxicity was shown in UVB-irradiated BALB/c 3T3 cells” value [4] was ≥ 4 µM.

With C=Cc1c(C)c2cc3nc(c(CC(=O)OC)c4[nH]c(cc5nc(cc1[nH]2)C(C)=C5CC)c(C)c4C(=O)NCCCNC(=O)CCCC(=O)Oc1ccc(/C=C/C(=O)CC(=O)/C=C/c2ccc(O)c(OC)c2)cc1OC)C(CCC(=O)OC)C3C (stereo not shown) [Ce6-propane-curcumin] the IC50 [1, 5] was ≥ 1 µM, the IC50 [1, 6] was ≥ 1 µM and the “cytotoxicity for Hs68 cells” value [1] was “almost no cytotoxicity”. The “phototoxicity toward human dermal fibroblasts, Hs68” value ([1]; with PDT, up to a dose of 1000 nM) was “no phototoxicity”, the IC50 [2] was 2.04 µM and the “UVB-induced MMP-2 expression (gelatin zymography)” value ([3]; 100 nM) was “significant reductions”. The “cell viability of UVB-irradiated BALB/c 3T3 cells” value [4] was “not affected”.
